Results reported in ChEMBL document CHEMBL4507268 (2021).

Tests used:
[1] = molecular target: Ribosomal protein S6 kinase alpha-4 (Homo sapiens) (UniProt O75676); conditions: Compound concentration 1000.0 nM
[2] = molecular target: Serine/threonine-protein kinase 36 (Homo sapiens) (UniProt Q9NRP7); conditions: Compound concentration 1000.0 nM
[3] = molecular target: Homeodomain-interacting protein kinase 3 (Homo sapiens) (UniProt Q9H422); conditions: Compound concentration 1000.0 nM
[4] = molecular target: Death-associated protein kinase 1 (Homo sapiens) (UniProt P53355); conditions: Compound concentration 1000.0 nM
Death-associated protein kinase 1 (Homo sapiens), sequence (P53355 whole entry, looked up): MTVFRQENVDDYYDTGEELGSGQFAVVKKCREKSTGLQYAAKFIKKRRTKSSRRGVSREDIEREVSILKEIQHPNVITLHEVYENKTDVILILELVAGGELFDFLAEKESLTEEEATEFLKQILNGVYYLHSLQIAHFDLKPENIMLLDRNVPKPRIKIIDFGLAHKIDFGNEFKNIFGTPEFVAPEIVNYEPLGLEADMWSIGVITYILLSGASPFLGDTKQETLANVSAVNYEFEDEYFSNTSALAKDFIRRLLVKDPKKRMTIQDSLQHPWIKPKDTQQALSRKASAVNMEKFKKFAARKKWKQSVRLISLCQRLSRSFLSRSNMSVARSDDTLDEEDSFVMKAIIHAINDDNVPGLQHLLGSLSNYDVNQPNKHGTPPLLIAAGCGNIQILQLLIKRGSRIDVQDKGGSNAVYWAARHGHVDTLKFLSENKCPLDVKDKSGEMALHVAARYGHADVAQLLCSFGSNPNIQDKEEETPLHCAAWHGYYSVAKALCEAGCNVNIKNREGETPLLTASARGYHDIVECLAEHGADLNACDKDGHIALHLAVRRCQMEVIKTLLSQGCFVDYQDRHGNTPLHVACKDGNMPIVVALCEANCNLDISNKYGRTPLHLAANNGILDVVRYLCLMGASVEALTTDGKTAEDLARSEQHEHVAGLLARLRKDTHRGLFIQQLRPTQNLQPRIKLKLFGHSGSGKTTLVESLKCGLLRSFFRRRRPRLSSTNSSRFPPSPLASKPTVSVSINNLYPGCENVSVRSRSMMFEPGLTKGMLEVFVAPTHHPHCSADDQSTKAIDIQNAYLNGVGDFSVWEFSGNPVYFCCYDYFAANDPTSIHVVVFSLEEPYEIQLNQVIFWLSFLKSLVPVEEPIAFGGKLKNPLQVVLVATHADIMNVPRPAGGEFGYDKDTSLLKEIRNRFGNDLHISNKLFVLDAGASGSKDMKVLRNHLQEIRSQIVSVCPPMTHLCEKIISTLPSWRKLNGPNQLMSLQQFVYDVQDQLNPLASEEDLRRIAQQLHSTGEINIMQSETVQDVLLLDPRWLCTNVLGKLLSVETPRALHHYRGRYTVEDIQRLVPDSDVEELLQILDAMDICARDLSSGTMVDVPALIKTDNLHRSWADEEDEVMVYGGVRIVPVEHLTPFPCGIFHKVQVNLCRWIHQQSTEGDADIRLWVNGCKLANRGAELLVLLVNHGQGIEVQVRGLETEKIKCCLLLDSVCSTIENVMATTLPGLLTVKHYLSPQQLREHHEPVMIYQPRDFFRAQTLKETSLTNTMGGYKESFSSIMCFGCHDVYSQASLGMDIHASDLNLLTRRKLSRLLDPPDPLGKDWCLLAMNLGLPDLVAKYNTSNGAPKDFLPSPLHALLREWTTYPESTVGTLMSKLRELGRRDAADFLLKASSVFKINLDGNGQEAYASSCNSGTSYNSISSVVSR

[5] = molecular target: T1, Testis-specific serine/threonine-protein kinase 3 (Homo sapiens) (UniProt Q96PN8); conditions: Compound concentration 1000.0 nM
T1 sequence (whole entry): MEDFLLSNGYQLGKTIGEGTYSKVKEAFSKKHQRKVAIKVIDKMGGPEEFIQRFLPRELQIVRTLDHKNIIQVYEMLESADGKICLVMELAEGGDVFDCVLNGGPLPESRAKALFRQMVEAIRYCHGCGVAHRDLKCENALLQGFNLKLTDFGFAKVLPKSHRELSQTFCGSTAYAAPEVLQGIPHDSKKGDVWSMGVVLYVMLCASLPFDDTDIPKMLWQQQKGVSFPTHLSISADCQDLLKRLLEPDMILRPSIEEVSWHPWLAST

[6] = molecular target: 5'-AMP-activated protein kinase catalytic subunit alpha-2 (Homo sapiens) (UniProt P54646); conditions: Compound concentration 1000.0 nM
[7] = molecular target: Alpha-1B adrenergic receptor (Homo sapiens) (UniProt P35368); conditions: Compound concentration 10.0 uM
[8] = molecular target: Cyclin-dependent kinase 9 (Homo sapiens) (UniProt P50750); conditions: Compound concentration 1000.0 nM
Cyclin-dependent kinase 9 (Homo sapiens), sequence (P50750 whole entry, the tested form may be a part): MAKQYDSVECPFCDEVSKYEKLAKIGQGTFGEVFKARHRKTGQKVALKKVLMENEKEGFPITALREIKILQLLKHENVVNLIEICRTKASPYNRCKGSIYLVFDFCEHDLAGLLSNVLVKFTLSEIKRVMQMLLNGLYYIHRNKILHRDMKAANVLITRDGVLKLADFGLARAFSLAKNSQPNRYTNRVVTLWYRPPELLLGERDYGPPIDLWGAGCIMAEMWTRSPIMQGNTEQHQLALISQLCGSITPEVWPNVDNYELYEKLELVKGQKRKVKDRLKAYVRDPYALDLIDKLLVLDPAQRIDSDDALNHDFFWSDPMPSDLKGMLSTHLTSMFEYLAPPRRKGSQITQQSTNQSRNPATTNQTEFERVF

[9] = molecular target: Ankyrin repeat and protein kinase domain-containing protein 1 (Homo sapiens) (UniProt Q8NFD2); conditions: Compound concentration 1000.0 nM
[10] = molecular target: Cyclin-dependent kinase 17 (Homo sapiens) (UniProt Q00537); conditions: Compound concentration 1000.0 nM
Cyclin-dependent kinase 17 (Homo sapiens), sequence (Q00537 whole entry, looked up): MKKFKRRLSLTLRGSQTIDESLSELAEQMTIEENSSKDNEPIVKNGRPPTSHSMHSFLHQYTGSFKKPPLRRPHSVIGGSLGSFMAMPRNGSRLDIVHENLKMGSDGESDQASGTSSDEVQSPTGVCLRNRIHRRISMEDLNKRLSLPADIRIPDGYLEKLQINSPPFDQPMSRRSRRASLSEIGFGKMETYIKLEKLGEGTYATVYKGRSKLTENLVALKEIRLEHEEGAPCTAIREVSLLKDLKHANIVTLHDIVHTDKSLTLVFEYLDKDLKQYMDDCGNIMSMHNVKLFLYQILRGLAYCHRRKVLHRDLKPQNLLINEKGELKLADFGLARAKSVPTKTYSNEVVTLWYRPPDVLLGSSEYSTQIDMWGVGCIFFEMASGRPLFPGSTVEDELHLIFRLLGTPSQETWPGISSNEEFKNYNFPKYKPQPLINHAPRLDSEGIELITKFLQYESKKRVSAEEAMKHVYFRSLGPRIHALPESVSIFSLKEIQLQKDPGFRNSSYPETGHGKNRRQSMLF

[11] = molecular target: Mitogen-activated protein kinase kinase kinase 9 (Homo sapiens) (UniProt P80192); conditions: Compound concentration 1000.0 nM
[12] = molecular target: RAC-beta serine/threonine-protein kinase (Homo sapiens) (UniProt P31751); conditions: Compound concentration 1000.0 nM
[13] = system: Epidermal growth factor receptor (Homo sapiens), P00533 [UNDEFINED MUTATION]; conditions: Compound concentration 1000.0 nM
[14] = molecular target: Casein kinase I isoform epsilon (Homo sapiens) (UniProt P49674); conditions: Compound concentration 1000.0 nM
Casein kinase I isoform epsilon (Homo sapiens), sequence (P49674 whole entry, looked up, canonical isoform): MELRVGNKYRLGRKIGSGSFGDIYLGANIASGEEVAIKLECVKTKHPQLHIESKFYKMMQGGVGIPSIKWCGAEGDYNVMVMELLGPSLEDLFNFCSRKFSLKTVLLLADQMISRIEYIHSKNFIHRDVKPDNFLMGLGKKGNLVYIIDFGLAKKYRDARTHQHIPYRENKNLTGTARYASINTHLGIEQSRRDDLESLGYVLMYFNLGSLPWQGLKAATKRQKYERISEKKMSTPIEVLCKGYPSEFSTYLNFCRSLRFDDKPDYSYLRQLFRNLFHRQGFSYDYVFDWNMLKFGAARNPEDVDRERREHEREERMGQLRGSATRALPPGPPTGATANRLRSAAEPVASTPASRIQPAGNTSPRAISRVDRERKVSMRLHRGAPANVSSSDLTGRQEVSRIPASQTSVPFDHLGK

[15] = molecular target: T2, Inhibitor of nuclear factor kappa-B kinase subunit alpha (Homo sapiens) (UniProt O15111); conditions: Compound concentration 1000.0 nM
T2 sequence (whole entry): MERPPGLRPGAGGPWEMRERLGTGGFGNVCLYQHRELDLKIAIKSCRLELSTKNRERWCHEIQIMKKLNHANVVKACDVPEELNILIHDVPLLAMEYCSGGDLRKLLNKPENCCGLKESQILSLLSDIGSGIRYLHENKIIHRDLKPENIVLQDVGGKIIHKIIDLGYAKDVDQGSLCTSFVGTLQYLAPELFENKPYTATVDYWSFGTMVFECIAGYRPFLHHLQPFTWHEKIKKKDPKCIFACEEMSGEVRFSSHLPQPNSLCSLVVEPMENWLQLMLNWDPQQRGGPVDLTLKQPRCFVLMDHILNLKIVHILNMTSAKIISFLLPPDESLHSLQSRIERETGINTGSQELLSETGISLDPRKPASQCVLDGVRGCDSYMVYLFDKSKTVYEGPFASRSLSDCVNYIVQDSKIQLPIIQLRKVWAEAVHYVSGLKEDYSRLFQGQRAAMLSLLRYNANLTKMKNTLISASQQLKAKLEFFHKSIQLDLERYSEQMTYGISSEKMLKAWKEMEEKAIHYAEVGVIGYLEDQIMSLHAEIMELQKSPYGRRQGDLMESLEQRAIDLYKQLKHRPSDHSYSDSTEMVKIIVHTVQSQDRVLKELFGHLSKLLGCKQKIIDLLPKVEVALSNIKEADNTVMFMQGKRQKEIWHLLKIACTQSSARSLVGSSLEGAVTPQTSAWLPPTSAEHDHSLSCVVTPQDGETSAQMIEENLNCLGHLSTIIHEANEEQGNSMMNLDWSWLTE

[16] = molecular target: Serine/threonine-protein kinase 38-like (Homo sapiens) (UniProt Q9Y2H1); conditions: Compound concentration 1000.0 nM
[17] = molecular target: Phosphatidylinositol 4-phosphate 5-kinase type-1 alpha (Homo sapiens) (UniProt Q99755); conditions: Compound concentration 1000.0 nM
[18] = molecular target: T3, Serine/threonine-protein kinase TAO1 (Homo sapiens) (UniProt Q7L7X3); conditions: Compound concentration 1000.0 nM
T3 sequence (whole entry): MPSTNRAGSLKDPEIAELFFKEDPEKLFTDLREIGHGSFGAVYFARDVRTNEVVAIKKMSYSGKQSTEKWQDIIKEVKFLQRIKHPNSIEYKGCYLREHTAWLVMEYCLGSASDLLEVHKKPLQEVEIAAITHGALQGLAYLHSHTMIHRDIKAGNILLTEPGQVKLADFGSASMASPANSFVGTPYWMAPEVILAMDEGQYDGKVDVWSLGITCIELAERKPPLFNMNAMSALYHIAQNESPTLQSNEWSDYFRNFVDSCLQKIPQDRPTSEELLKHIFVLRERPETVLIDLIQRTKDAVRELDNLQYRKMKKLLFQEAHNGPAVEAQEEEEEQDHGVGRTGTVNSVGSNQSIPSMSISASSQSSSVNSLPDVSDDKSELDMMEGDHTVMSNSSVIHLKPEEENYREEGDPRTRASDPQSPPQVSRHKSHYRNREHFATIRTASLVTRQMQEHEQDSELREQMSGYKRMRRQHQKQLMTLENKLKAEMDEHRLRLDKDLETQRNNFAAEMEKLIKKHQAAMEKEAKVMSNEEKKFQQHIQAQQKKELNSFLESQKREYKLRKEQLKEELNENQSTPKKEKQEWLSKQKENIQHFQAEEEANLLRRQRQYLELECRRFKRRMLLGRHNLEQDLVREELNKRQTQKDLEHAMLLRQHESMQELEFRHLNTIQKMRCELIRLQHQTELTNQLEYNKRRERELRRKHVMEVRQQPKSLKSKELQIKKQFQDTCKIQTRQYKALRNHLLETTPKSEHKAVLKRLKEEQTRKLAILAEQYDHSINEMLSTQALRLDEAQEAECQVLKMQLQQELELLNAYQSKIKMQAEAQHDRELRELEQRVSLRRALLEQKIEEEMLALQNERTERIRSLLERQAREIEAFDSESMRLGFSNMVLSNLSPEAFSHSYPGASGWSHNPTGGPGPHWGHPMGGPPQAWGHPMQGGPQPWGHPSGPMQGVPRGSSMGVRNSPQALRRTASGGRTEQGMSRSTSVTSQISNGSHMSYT

Ribosomal protein S6 kinase alpha-4 (Homo sapiens), sequence (O75676 whole entry, looked up): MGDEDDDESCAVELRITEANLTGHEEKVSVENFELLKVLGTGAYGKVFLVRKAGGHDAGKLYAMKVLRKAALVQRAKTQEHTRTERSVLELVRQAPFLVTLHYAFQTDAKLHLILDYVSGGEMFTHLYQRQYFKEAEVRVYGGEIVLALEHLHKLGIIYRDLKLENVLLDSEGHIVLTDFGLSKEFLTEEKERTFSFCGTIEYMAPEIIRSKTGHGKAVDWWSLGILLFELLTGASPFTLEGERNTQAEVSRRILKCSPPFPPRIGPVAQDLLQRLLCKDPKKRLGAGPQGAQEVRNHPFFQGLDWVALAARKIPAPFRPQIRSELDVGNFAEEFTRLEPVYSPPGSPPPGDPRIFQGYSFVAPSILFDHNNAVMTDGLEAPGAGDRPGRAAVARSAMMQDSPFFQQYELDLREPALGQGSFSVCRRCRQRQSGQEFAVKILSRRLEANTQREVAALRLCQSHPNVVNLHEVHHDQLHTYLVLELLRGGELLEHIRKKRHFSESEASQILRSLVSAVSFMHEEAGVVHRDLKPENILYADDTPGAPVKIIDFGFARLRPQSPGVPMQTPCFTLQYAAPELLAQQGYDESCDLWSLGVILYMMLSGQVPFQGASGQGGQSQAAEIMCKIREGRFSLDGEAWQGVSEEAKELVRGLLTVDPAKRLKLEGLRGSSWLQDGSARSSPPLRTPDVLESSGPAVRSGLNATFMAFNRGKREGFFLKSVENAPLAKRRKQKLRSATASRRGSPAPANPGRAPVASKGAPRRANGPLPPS
Serine/threonine-protein kinase 36 (Homo sapiens), sequence (Q9NRP7 whole entry): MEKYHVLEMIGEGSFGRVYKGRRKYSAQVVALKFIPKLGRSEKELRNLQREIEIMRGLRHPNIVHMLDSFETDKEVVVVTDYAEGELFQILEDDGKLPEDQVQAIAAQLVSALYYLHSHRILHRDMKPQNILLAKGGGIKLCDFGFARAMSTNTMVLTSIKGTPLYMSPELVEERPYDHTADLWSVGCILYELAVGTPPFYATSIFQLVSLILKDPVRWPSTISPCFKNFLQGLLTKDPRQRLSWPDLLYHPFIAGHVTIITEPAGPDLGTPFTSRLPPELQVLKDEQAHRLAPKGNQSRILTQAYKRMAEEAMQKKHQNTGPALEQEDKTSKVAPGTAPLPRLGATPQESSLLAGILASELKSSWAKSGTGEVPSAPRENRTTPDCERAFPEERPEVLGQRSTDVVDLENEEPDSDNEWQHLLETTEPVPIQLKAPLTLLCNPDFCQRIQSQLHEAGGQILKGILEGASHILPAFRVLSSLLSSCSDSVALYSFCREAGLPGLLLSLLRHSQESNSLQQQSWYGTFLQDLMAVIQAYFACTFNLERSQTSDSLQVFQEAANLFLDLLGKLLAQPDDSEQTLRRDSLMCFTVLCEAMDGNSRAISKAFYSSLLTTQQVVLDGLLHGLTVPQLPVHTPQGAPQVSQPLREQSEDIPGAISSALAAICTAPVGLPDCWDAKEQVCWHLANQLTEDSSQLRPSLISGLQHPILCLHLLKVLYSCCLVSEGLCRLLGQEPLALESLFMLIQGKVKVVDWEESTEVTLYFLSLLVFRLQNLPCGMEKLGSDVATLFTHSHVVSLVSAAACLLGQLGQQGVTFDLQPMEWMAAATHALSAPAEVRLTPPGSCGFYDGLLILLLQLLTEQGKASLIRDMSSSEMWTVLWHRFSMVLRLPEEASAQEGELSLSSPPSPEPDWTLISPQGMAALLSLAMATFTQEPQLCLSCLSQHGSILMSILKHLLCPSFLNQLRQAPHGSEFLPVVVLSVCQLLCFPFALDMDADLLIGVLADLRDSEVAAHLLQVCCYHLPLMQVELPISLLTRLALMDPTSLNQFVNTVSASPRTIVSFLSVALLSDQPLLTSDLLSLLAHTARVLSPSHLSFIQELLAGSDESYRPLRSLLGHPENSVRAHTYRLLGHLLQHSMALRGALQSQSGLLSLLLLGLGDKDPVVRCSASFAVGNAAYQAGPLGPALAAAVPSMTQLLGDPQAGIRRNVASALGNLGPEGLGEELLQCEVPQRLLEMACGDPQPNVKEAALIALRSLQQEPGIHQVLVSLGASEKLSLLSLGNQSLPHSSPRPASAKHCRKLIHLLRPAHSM

Cc1nc(C2CCN(C(=O)c3ccc(OC(F)(F)F)cc3N)CC2)c2ncc(N3CCN(C)CC3)cc2n1 [BAY-693]
inactive: residual activity [1] 93% | residual activity [2] 100% | residual activity [3] 96% | residual activity [4] 95% | residual activity [5] 100% | residual activity [6] 100% | inhibition [7] 20.2% | residual activity [8] 79% | residual activity [9] 81% | residual activity [10] 88% | residual activity [11] 97% | residual activity [12] 100% | residual activity [13] 100% | residual activity [14] 100% | residual activity [15] 84% | residual activity [16] 100% | residual activity [17] 63% | residual activity [18] 100%

CN1CCN(c2cnc3c(C4CCN(C(=O)c5ccc(OC(F)(F)F)cc5N)CC4)ncnc3c2)CC1 [BAY-885]
inactive: residual activity [1] 100% | residual activity [2] 75% | residual activity [3] 100% | residual activity [4] 100% | residual activity [5] 68% | residual activity [6] 100% | inhibition [7] 16.4% | residual activity [8] 100% | residual activity [9] 98% | residual activity [10] 93% | residual activity [11] 100% | residual activity [12] 100% | residual activity [13] 100% | residual activity [14] 100% | residual activity [15] 100% | residual activity [16] 100% | residual activity [17] 64% | residual activity [18] 100%
